Source: US6984643B2, “2,5-substituted pyrimidine derivatives-CCR-3 receptor antagonists” (Roche Palo Alto LLC, priority 2002, dated 2006)

Target: T1, CCR-3 receptor (Homo sapiens, UniProt P51677)
T1 construct: expressed in transfected cells; host or cells: L1.2 (murine pre-B lymphoma line)
T1 sequence (P51677 1-355): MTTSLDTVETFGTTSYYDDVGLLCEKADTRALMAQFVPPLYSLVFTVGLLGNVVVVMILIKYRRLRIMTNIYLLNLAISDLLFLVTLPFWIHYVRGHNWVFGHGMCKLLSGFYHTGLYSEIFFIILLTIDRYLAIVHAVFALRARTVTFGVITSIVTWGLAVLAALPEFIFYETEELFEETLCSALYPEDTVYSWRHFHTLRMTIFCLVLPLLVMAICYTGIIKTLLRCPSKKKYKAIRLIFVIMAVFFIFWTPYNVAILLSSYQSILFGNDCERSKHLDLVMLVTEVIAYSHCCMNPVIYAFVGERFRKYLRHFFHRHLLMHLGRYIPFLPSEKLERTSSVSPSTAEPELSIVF
Experiment: CCR-3 Receptor Binding Assay in vitro (inhibition of 125I eotaxin binding to CCR-3 L1.2 transfectant cells)
Details: concentration reducing 125I-eotaxin binding to CCR-3 L1.2 transfected cells by 50%; read-out: CCR-3 IC50
Experimental: The CCR-3 antagonistic activity of the compounds of the invention was determined by their ability to inhibit the binding of ^125I eotaxin to CCR-3 L1.2 transfectant cells (see Ponath, P. D. et al., J. Exp. Med., Vol. 183, 2437-2448, (1996)).
The assay was performed in Costar 96-well polypropylene round bottom plates. Test compounds were dissolved in DMSO and then diluted with binding buffer (50 mM HEPES, 1 mM CaCl2, 5 mM MgCl2, 0.5% bovine serum albumin (BSA), 0.02% sodium azide, pH 7.24) such that the final DMSO concentration was 2%. Each well was filled with 25 μl of the test solution or only buffer with DMSO (control samples) followed by the addition of 25 μl of ^125I-eotaxin (100 pmol) (NEX314, New England Nuclear, Boston, Mass.) and 1.5×10^5 of the CCR-3 L1.2 transfected cells in 25 μl binding buffer. The final reaction volume was 75 μl.
After incubating the reaction mixture for 1 h at room temperature, the reaction was terminated by filtering the reaction mixture through polyethylenimine treated Packard Unifilter GF/C filter plate (Packard, Chicago, Ill.). The filters were washed four times with ice cold wash buffer containing 10 mM HEPES and 0.5M sodium chloride (pH 7.2) and dried at 65° C. for approximately 10 min. 25 μl/well of Microscint-20™ scintillation fluid (Packard) was added and the radioactivity retained on the filters was determined by using the Packard TopCount™.
The IC50 value (concentration of test compound required to reduce ^125I-eotaxin binding to the CCR-3 L 1.2 transfected cells by 50%) for compounds in Table I of the invention was between 0.02 and 200 μM, preferably between 0.02 and 10 μM.

- IC50: 81 nM
Structure (SMILES): COc1ccc(-c2cnc(SCC(=O)NCC3CCCN(Cc4cc(Cl)c(Cl)s4)C3)nc2)cc1OC (stereo not shown) [Compound 64, N-[1-(4,5-dichloro-thiophen-2-ylmethyl)-piperidin-3-ylmethyl]-2-[5-(3,4-dimethoxy-phenyl)-pyrimidin-2-ylsulfanyl]-acetamide]
